Laboratory results published in patent US8993594B2, “Isoquinolin-1(2H)-one derivatives as PARP-1 inhibitors” (Nerviano Medical Sciences S.R.L., priority 2009, dated 2015).
Structures can show the parent of a compound that is named as a salt.

Columns and labels:
PARP-1 FL = PARP-1 FL (Homo sapiens, UniProt P09874); assay: Fluorescence polarization probe displacement assay; assay type: binding; conditions: for DC50: half maximal displacement concentration
Method: (§1) Affinity of the tested compounds and their selectivity with respect to the different PARP isoforms of interest was quantified in a displacement assay.
(§2) In all of the experiments, the polarization signal was measured using a Saphire2 plate reader (Tecan). Data analysis was performed using Dynafit software. In particular, titration data were fitted to the following equilibria: Enzyme+probe <==> Complex Enzyme-probe, while displacement data were fitted to the following equilibria: Enzyme+probe <==> Complex Enzyme-probe, Enzyme+Compound <==> Complex Enzyme-Compound, whereby binding of probe and compound on the enzyme are mutually exclusive (pure competitive mechanism). Displacement data were also fitted using Excel spreadsheet (Microsoft Inc. Seattle, USA) to a four parameter logistic model (4PL), or Hill-Slope model to calculate DC50s where the DC50 value represents the compound concentration at which the polarization signal is diminished by 50% compared to untreated controls.
(§3) In agreement, affinity binding constants (KD) were determined by fitting with a pure competitive mechanism. KD values are the average of three independent experiments.

PARP-2 FL = PARP-2 FL (Homo sapiens, UniProt Q9UGN5); assay: Fluorescence polarization probe displacement assay; assay type: binding; conditions: for DC50: compound P1 as the probe
Sequence of PARP-2 FL (Q9UGN5 whole entry): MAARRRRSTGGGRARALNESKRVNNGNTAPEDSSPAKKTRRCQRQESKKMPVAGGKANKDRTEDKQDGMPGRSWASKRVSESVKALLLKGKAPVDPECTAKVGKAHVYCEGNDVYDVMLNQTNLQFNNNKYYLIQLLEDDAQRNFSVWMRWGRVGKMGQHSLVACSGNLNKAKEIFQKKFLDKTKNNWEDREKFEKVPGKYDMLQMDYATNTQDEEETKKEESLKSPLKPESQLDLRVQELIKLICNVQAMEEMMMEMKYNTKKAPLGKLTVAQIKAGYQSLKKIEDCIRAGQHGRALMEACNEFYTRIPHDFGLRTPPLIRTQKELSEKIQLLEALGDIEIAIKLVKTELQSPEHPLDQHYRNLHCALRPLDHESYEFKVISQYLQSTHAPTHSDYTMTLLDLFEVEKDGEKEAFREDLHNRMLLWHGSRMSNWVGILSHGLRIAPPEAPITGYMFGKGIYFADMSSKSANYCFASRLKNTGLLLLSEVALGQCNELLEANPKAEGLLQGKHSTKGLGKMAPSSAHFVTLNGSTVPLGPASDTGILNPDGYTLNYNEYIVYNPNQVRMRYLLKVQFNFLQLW
Method: as §1, §2, §3

[1] = tested on: hydrogen peroxide induced PAR formation in HeLa cells; assay: Cellular PAR assay (inhibition of hydrogen peroxide induced PAR formation); assay type: cell-based; conditions: Homo sapiens, 0.1 mM hydrogen peroxide 15 min
Method: Compounds potencies were evaluated by measuring the inhibition of poly (ADP-ribose) (PAR) chains formation as a marker for PARP-1 inhibition.
Cellular activity of PARP-1 inhibitors was assessed by measuring the inhibition of the hydrogen peroxide induced PAR formation in HeLa cells (ECACC). Cellular PAR levels were measured by immunocytochemistry and quantified using an ArrayScan vTi instrument (Cellomics Thermo Scientific).
Studies were performed as follows: 6000 cells/well were seeded in 96 well plates (Perkin Elmer) in MEM/10% FCS and incubated for 24 hours at 37° C., 5% carbon dioxide. Test compounds were then added at the required concentration for 30′. […] Concentration curves were prepared in MEM/10% FCS from compound stocks in DMSO and final DMSO concentration was 0.002% (v/v). Duplicate wells for each concentration point were prepared with a typical highest compound concentration of 20 μM and serial dilution 1:3. […] Non-specific binding sites were blocked by incubating wells for 30 min in PBS containing 5% (w/v) FBS 0.05% tween20. […] After washing further 3 times in PBS, cellular PAR immunoreactivity was assessed using the ArrayScan vTi instrument, with a Zeiss 10×0.5 N.A. objective, and applying the Cytotoxicity.V3 algorithm (Cellomics/Thermo Fisher) with a XF100 filter. At least 10 fields, corresponding to at least 900 cells, were read for each well.
The following formula is used: IC50=Bottom+(Top−Bottom)/(1+10^((Log EC50−X))); X is the logarithm of concentration. IC50 is the response; IC50 starts at Bottom and goes to Top with a sigmoid shape.

[2] = Pharmacokinetics and oral bioavailability in the mouse; assay type: in vivo
Method: The compounds were formulated in 10% tween 80/dextrose for intravenous bolus administration while oral administrations were performed using the compounds formulated in 0.5% methylcellulose. A single administration at the dose of 10 mg/kg was given and three male animals for each route were used. […] Plasma samples were prepared by plasma proteins precipitation adding 200 µl of methanol to 10 µl of plasma in a 96 well plate. […] The supernatant was considered as final extract and injected onto the LC-MS-MS system (HPLC system: Hewlett Packard 1100 series using Atlantis HILIC Silica 50*2.1 mm 5.0 μM analytical column; MS instrument: Perkin Elmer SCIEX API 2000 and ionization performed with Turbo Ion Spray in positive ion mode). Lower limit of quantification is 5.0 ng/ml, upper limit of quantification is 10000 ng/ml. […] Non-compartmental method (linear trapezoidal rule and linear regression analysis of natural log-transformed plasma concentrations vs. time data) was used. After intravenous dosing, C0 was set equal to C0.083, Absolute bioavailability (F) was calculated from the ratio of average oral to IV (intravenous) dose-normalized plasma AUC (area under curve) values.

PARP-3 FL = molecular target: T1, PARP-3 FL (Homo sapiens, UniProt Q9Y6F1); assay: Fluorescence polarization probe displacement assay; assay type: binding; conditions: compound P1 as the probe
T1 sequence (Q9Y6F1 1-533): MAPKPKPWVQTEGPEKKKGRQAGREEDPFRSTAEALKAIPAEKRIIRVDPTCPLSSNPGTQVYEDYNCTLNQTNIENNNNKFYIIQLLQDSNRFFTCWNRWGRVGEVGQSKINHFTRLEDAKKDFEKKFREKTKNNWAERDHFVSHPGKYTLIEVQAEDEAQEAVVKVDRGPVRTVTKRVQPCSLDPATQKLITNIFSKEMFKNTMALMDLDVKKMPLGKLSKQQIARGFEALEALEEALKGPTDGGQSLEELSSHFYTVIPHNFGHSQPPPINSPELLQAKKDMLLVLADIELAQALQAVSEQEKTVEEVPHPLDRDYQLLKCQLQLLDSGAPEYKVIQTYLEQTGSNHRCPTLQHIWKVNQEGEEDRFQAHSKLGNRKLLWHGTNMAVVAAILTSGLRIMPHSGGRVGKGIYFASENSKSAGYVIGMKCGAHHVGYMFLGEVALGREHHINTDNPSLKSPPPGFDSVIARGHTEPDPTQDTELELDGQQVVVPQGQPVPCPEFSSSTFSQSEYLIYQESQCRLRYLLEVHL
Method: as §1, §2, §3

Sequence of PARP-1 FL (P09874 whole entry): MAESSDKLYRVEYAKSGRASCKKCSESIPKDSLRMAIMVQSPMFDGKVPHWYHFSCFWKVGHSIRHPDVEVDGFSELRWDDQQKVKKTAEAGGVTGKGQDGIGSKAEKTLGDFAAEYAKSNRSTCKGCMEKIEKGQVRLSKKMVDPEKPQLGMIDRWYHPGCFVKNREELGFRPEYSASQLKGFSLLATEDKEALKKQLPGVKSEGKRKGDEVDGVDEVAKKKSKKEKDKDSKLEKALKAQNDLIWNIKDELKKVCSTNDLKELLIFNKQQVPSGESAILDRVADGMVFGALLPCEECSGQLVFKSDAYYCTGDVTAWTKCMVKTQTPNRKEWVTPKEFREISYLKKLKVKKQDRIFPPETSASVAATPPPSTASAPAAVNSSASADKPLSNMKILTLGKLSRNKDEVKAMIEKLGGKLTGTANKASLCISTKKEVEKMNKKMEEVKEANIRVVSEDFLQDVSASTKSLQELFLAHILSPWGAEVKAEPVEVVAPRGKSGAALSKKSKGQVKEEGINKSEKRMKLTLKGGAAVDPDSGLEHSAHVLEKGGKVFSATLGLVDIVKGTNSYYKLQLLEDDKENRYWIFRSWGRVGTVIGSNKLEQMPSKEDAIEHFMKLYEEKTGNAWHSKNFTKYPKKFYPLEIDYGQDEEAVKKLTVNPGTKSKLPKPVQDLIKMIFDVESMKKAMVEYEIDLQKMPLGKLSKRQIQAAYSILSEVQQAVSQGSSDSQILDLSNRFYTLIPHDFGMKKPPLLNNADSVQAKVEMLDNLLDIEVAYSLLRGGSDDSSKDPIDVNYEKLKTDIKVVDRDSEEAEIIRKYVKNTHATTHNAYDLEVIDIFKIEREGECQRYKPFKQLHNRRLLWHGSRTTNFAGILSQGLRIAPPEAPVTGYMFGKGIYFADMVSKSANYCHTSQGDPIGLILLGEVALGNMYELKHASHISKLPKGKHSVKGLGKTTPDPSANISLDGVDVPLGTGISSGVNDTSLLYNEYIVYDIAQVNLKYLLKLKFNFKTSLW

Row | Kd (PARP-1 FL) | DC50 (PARP-1 FL) | Kd (PARP-2 FL) | DC50 (PARP-2 FL) | IC50 [1] | Displacement of the probe (compound P1 or compound P3) (PARP-1 FL; from all of the tested PARP isoforms) | F on AUC ([2]; 10 mg/kg, ratio of oral to IV dose-normalized plasma AUC) | clearance ([2]; male, Balb Nu/Nu, plasma, 10 mg/kg intravenous bolus, mean value, read-out: CL(IV bolus)) | Vd ([2]; male, Balb Nu/Nu, plasma, 10 mg/kg intravenous bolus, mean value, read-out: Vdss (IV bolus)) | AUC ([2]; male, Balb Nu/Nu, plasma, 10 mg/kg oral, mean value) | half-life ([2]; male, Balb Nu/Nu, plasma, 10 mg/kg oral, mean value, read-out: T½ (oral) (converted)) | DC50 (PARP-3 FL) | Structure (SMILES)
1 | < 0.03 µM | < 0.25 µM | 3.07 µM | 2.89 µM | 0.79 µM |  |  |  |  |  |  |  | NCCOc1c(-c2ccccc2)[nH]c(=O)c2ccccc12 [Compound 1, 4-(2-Amino-ethoxy)-3-phenyl-2H-isoquinolin-1-one hydrochloride]
2 | 0.2 µM | 0.32 µM | 6.28 µM |  | 6.72 µM |  |  |  |  |  |  |  | CC(=O)NCCOc1c(-c2ccccc2)[nH]c(=O)c2ccccc12 [Compound 2, N-[2-(1-Oxo-3-phenyl-1,2-dihydro-isoquinolin-4-yloxy)-ethyl]-acetamide]
3 | < 0.03 µM | < 0.25 µM | 3.92 µM | 4.1 µM | 3.26 µM |  |  |  |  |  |  |  | NCCCOc1c(-c2ccccc2)[nH]c(=O)c2ccccc12 [Compound 3, 4-(3-Amino-propoxy)-3-phenyl-2H-isoquinolin-1-one hydrochloride]
4 |  |  |  |  |  | fully displaced |  |  |  |  |  |  | NC(=O)c1cccc(N)c1 [Compound 3-AB, 3-aminobenzamide, reference compound]
5 | 0.19 µM | 0.31 µM | 0.95 µM | 0.91 µM |  |  |  |  |  |  |  |  | CC(=O)NCCCOc1c(-c2ccccc2)[nH]c(=O)c2ccccc12 [Compound 4, N-[3-(1-Oxo-3-phenyl-1,2-dihydro-isoquinolin-4-yloxy)-propyl]-acetamide]
6 | < 0.03 µM | < 0.25 µM | 4.59 µM | 4.34 µM | 1.44 µM |  |  |  |  |  |  |  | O=c1[nH]c(-c2ccccc2)c(OCCCN2CCCCC2)c2ccccc12 [Compound 5, 3-Phenyl-4-(3-piperidin-1-yl-propoxy)-2H-isoquinolin-1-one trifluoroacetate]
7 | < 0.03 µM | < 0.25 µM | > 10 µM | > 10 µM | 0.86 µM |  |  |  |  |  |  |  | O=c1[nH]c(-c2ccccc2)c(OCCN2CCNCC2)c2ccccc12 [Compound 6, 3-Phenyl-4-(2-piperazin-1-yl-ethoxy)-2H-isoquinolin-1-one di-hydrochloride]
8 | < 0.03 µM | < 0.25 µM | > 10 µM | > 10 µM |  |  |  |  |  |  |  |  | CC(=O)N1CCN(CCOc2c(-c3ccccc3)[nH]c(=O)c3ccccc23)CC1 [Compound 7, 4-[2-(4-Acetyl-piperazin-1-yl)-ethoxy]-3-phenyl-2H-isoquinolin-1-one]
9 |  | 0.82 µM |  | 4.29 µM |  |  |  |  |  |  |  |  | O=C(NCCCOc1c(-c2ccccc2)[nH]c(=O)c2ccccc12)c1ccccc1 [Compound 8, N-[3-(1-Oxo-3-phenyl-1,2-dihydro-isoquinolin-4-yloxy)-propyl]benzamide]
10 |  | 0.37 µM |  | 0.86 µM |  |  |  |  |  |  |  |  | COc1cccc(-c2[nH]c(=O)c3ccccc3c2OCCN2CCCCC2)c1 [Compound 9, 3-(3-Methoxy-phenyl)-4-(2-piperidin-1-yl-ethoxy)-2H-isoquinolin-1-one]
11 | 0.05 µM | 0.35 µM | 4.39 µM |  | 0.33 µM |  |  |  |  |  |  |  | COc1cccc(-c2[nH]c(=O)c3ccccc3c2OCCCN2CCCCC2)c1 [Compound 10, 3-(3-Methoxy-phenyl)-4-(3-piperidin-1-yl-propoxy)-2H-isoquinolin-1-one]
12 | 0.05 µM | < 0.25 µM | 1.65 µM | 2.91 µM | 0.42 µM |  | 17% | 177 mL/min/kg | 3.3 L/kg | 0.52 µM·h | 1.19 h |  | CNCCCOc1c(-c2ccccc2)[nH]c(=O)c2ccccc12.Cl [Compound 12, 4-(3-Methylamino-propoxy)-3-phenyl-2H-isoquinolin-1-one hydrochloride]
13 | < 0.03 µM | < 0.25 µM | 6.13 µM | 4.29 µM | 4.2 µM |  |  |  |  |  |  |  | O=c1[nH]c(-c2ccccc2)c(OCCCN2CCNCC2)c2ccccc12 [Compound 14, 3-Phenyl-4-(3-piperazin-1-yl-propoxy)-2H-isoquinolin-1-one di-hydrochloride]
14 | < 0.03 µM | < 0.25 µM | 2.44 µM |  | 0.48 µM |  |  |  |  |  |  |  | CNCCOc1c(-c2ccccc2)[nH]c(=O)c2ccccc12 [Compound 16, 4-(2-Methylamino-ethoxy)-3-phenyl-2H-isoquinolin-1-one]
15 | < 0.03 µM | < 0.25 µM | 1.01 µM | 3.28 µM | 0.34 µM |  |  |  |  |  |  |  | CN(C)CCOc1c(-c2ccccc2)[nH]c(=O)c2ccccc12 [Compound 17, 4-(2-Dimethylamino-ethoxy)-3-phenyl-2H-isoquinolin-1-one]
16 | < 0.03 µM | < 0.25 µM | 8.65 µM |  | 0.85 µM |  |  |  |  |  |  |  | CCN(CC)CCCOc1c(-c2ccccc2)[nH]c(=O)c2ccccc12 [Compound 18, 4-(3-Diethylamino-propoxy)-3-phenyl-2H-isoquinolin-1-one hydrochloride]
17 | < 0.03 µM | < 0.25 µM | 7.29 µM |  |  |  |  |  |  |  |  |  | CN1CCN(CCOc2c(-c3ccccc3)[nH]c(=O)c3ccccc23)CC1 [Compound 19, 4-[2-(4-Methyl-piperazin-1-yl)-ethoxy]-3-phenyl-2H-isoquinolin-1-one di hydrochloride]
18 | 0.05 µM | < 0.25 µM | 5.35 µM | 5.52 µM | 6.5 µM |  |  |  |  |  |  |  | CN1CCN(CCCOc2c(-c3ccccc3)[nH]c(=O)c3ccccc23)CC1 [Compound 20, 4-[3-(4-Methyl-piperazin-1-yl)-propoxy]-3-phenyl-2H-isoquinolin-1-one di hydrochloride]
19 | 0.04 µM | < 0.25 µM | 1.36 µM | 1.58 µM | 8.3 µM |  |  |  |  |  |  |  | O=c1[nH]c(-c2ccccc2)c(OCCCN2CCCC2)c2ccccc12 [Compound 21, 3-Phenyl-4-(3-pyrrolidin-1-yl-propoxy)-2H-isoquinolin-1-one]
20 | < 0.03 µM | < 0.25 µM |  |  | 0.17 µM |  |  |  |  |  |  | 0.48 µM | COc1ccc(-c2[nH]c(=O)c3ccccc3c2OCCCN2CCCCC2)cc1 [Compound 23, 3-(4-Methoxy-phenyl)-4-(3-piperidin-1-yl-propoxy)-2H-isoquinolin-1-one]
21 | < 0.01 µM | < 0.25 µM | 0.33 µM | 0.68 µM | 0.23 µM |  |  |  |  |  |  | 0.35 µM | NCCOc1c(-c2ccc(O)cc2)[nH]c(=O)c2ccccc12 [Compound 26, 4-(2-Amino-ethoxy)-3-(4-hydroxy-phenyl)-2H-isoquinolin-1-one]
22 | < 0.03 µM | < 0.25 µM | 0.33 µM | 0.77 µM | 0.25 µM |  |  |  |  |  |  | 0.55 µM | O=c1[nH]c(-c2ccc(O)cc2)c(OCCCN2CCCCC2)c2ccccc12 [Compound 27, 3-(4-Hydroxy-phenyl)-4-(3-piperidin-1-yl-propoxy)-2H-isoquinolin-1-one]
23 | < 0.03 µM | < 0.25 µM |  | 1.1 µM | 0.4 µM |  |  |  |  |  |  | 0.47 µM | NCCOc1c(-c2ccc(O)cc2)[nH]c(=O)c2cc(F)ccc12 [Compound 28, 4-(2-Amino-ethoxy)-7-fluoro-3-(4-hydroxy-phenyl)-2H-isoquinolin-1-one hydrobromide]
24 | < 0.03 µM | < 0.25 µM |  | 0.54 µM |  |  |  |  |  |  |  | 0.2 µM | NCCOc1c(-c2ccsc2)[nH]c(=O)c2ccccc12 [Compound 29, 4-(2-Amino-ethoxy)-3-thiophen-3-yl-2H-isoquinolin-1-one hydrochloride]
25 | < 0.03 µM | < 0.25 µM | 0.45 µM | 0.79 µM | 0.2 µM |  |  |  |  |  |  | 0.28 µM | NCCOc1c(-c2cccc(O)c2)[nH]c(=O)c2ccccc12 [Compound 32, 4-(2-Amino-ethoxy)-3-(3-hydroxy-phenyl)-2H-isoquinolin-1-one hydrochloride]
26 |  | < 0.25 µM |  |  | 0.62 µM |  |  |  |  |  |  |  | O=c1[nH]c(-c2ccccc2)c(OCCCN2CCCCC2)c2ccc(Cl)cc12 [Compound 37, 7-Chloro-3-phenyl-4-(3-piperidin-1-yl-propoxy)-2H-isoquinolin-1-one]
27 |  | < 0.25 µM |  | 3.78 µM | 0.3 µM |  |  |  |  |  |  |  | O=c1[nH]c(-c2ccccc2)c(OCCCN2CCCCC2)c2ccc(F)cc12 [Compound 38, 7-Fluoro-3-phenyl-4-(3-piperidin-1-yl-propoxy)-2H-isoquinolin-1-one]
28 |  | 0.38 µM |  | 4.35 µM |  |  |  |  |  |  |  | 0.54 µM | O=c1[nH]c(-c2ccccc2)c(OC2CCNCC2)c2ccc(F)cc12 [Compound 85, 7-fluoro-3-phenyl-4-(piperidin-4-yloxy)isoquinolin-1(2H)-one hydrochloride]

Row | Structure (SMILES) | Kd (PARP-1 FL) | DC50 (PARP-1 FL) | Kd (PARP-2 FL) | DC50 (PARP-2 FL) | IC50 [1] | Displacement of the probe (compound P1 or compound P3) (PARP-1 FL; from all of the tested PARP isoforms) | F on AUC ([2]; 10 mg/kg, ratio of oral to IV dose-normalized plasma AUC) | clearance ([2]; male, Balb Nu/Nu, plasma, 10 mg/kg intravenous bolus, mean value, read-out: CL(IV bolus)) | Vd ([2]; male, Balb Nu/Nu, plasma, 10 mg/kg intravenous bolus, mean value, read-out: Vdss (IV bolus)) | AUC ([2]; male, Balb Nu/Nu, plasma, 10 mg/kg oral, mean value) | half-life ([2]; male, Balb Nu/Nu, plasma, 10 mg/kg oral, mean value, read-out: T½ (oral) (converted)) | DC50 (PARP-3 FL)
29 | NCCCCOc1c(-c2ccccc2)[nH]c(=O)c2ccccc12 [Compound 22, 4-(4-Amino-butoxy)-3-phenyl-2H-isoquinolin-1-one hydrochloride] | < 0.03 µM | < 0.25 µM | 1.34 µM | 4.08 µM | 9.5 µM |  |  |  |  |  |  | 
